Laboratory results from ChEMBL document CHEMBL4507296 (2021).

Key:
[1] = biological target: T1, Alpha-2B adrenergic receptor (Homo sapiens) (UniProt P18089); test: Adrenergic a2b (human) CEREP ligand profiling; conditions: Compound concentration 10.0 uM
T1 sequence (whole entry): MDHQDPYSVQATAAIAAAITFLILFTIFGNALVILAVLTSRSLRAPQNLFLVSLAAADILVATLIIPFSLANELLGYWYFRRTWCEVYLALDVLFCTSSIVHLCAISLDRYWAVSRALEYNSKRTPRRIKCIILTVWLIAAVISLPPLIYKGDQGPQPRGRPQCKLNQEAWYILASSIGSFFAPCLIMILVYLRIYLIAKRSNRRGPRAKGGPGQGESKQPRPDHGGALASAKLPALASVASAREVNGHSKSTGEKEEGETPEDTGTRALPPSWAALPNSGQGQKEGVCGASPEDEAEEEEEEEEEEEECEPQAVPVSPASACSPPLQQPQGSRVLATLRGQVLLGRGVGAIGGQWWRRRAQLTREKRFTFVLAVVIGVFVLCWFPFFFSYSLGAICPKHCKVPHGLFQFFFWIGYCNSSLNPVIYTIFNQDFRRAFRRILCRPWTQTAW

[2] = system: Tyrosine-protein kinase ABL1 (Homo sapiens), P00519 [Q252H]; conditions: Compound concentration 1000.0 nM
[3] = biological target: Activin receptor type-1 (Homo sapiens) (UniProt Q04771); conditions: Compound concentration 1000.0 nM
[4] = biological target: Mitogen-activated protein kinase kinase kinase 5 (Homo sapiens) (UniProt Q99683); conditions: Compound concentration 1000.0 nM
[5] = biological target: Mitogen-activated protein kinase kinase kinase 6 (Homo sapiens) (UniProt O95382); conditions: Compound concentration 1000.0 nM
Sequence of Mitogen-activated protein kinase kinase kinase 6 (Homo sapiens) (O95382 whole entry): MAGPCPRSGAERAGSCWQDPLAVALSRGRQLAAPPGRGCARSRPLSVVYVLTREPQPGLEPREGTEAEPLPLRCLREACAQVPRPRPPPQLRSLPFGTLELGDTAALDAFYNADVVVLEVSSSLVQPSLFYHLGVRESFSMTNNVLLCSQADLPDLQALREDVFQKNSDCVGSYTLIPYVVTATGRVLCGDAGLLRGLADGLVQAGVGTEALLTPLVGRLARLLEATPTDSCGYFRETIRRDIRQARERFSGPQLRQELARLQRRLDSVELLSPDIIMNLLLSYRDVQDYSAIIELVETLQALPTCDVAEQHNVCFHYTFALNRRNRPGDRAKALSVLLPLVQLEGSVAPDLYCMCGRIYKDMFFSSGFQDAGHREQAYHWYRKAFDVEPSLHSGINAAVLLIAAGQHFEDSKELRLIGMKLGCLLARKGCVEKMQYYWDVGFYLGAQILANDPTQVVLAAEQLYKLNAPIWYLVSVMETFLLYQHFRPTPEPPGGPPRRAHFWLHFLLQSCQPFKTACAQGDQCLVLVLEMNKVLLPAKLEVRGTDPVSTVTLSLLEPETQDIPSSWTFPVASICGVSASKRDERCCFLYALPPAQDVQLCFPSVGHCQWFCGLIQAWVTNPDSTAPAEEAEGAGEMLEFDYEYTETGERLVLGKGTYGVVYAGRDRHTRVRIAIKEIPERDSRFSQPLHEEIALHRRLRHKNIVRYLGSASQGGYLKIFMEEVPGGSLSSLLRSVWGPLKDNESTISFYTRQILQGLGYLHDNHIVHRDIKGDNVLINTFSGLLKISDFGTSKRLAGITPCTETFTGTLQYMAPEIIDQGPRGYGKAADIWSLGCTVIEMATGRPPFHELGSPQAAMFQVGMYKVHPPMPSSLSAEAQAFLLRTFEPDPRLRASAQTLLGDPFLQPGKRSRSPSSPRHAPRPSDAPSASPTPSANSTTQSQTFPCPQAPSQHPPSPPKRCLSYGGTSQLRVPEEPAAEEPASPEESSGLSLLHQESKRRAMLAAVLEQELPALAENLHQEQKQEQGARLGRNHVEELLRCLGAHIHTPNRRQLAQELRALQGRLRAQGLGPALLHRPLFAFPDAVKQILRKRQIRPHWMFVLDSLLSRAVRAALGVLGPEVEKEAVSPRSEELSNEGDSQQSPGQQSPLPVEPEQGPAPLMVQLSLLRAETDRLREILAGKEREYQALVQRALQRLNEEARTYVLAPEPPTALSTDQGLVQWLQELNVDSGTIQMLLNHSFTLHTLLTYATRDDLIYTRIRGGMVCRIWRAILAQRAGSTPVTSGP

[6] = biological target: Bone morphogenetic protein receptor type-1B (Homo sapiens) (UniProt O00238); conditions: Compound concentration 1000.0 nM
[7] = biological target: Serine/threonine-protein kinase BRSK2 (Homo sapiens) (UniProt Q8IWQ3); conditions: Compound concentration 1000.0 nM
[8] = biological target: Calcium/calmodulin-dependent protein kinase kinase 1 (Homo sapiens) (UniProt Q8N5S9); conditions: Compound concentration 1000.0 nM
[9] = biological target: Cyclin-dependent kinase 3 (Homo sapiens) (UniProt Q00526); conditions: Compound concentration 1000.0 nM
[10] = biological target: Cyclin-dependent kinase 4 (Homo sapiens) (UniProt P11802); conditions: Compound concentration 1000.0 nM
Sequence of Cyclin-dependent kinase 4 (Homo sapiens) (P11802 whole entry): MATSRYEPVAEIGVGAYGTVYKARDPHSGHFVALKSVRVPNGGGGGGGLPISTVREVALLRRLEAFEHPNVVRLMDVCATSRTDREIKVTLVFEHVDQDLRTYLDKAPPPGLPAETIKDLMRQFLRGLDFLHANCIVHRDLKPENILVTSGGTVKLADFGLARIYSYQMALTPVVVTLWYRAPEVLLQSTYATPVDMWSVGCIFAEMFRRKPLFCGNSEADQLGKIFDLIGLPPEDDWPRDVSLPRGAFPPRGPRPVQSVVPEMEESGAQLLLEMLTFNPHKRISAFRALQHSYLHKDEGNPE

[11] = biological target: Cyclin-dependent kinase 5 (Homo sapiens) (UniProt Q00535); conditions: Compound concentration 1000.0 nM
[12] = biological target: Cyclin-dependent kinase-like 3 (Homo sapiens) (UniProt Q8IVW4); conditions: Compound concentration 1000.0 nM
[13] = biological target: Citron Rho-interacting kinase (Homo sapiens) (UniProt O14578); conditions: Compound concentration 1000.0 nM
Sequence of Citron Rho-interacting kinase (Homo sapiens) (O14578 whole entry): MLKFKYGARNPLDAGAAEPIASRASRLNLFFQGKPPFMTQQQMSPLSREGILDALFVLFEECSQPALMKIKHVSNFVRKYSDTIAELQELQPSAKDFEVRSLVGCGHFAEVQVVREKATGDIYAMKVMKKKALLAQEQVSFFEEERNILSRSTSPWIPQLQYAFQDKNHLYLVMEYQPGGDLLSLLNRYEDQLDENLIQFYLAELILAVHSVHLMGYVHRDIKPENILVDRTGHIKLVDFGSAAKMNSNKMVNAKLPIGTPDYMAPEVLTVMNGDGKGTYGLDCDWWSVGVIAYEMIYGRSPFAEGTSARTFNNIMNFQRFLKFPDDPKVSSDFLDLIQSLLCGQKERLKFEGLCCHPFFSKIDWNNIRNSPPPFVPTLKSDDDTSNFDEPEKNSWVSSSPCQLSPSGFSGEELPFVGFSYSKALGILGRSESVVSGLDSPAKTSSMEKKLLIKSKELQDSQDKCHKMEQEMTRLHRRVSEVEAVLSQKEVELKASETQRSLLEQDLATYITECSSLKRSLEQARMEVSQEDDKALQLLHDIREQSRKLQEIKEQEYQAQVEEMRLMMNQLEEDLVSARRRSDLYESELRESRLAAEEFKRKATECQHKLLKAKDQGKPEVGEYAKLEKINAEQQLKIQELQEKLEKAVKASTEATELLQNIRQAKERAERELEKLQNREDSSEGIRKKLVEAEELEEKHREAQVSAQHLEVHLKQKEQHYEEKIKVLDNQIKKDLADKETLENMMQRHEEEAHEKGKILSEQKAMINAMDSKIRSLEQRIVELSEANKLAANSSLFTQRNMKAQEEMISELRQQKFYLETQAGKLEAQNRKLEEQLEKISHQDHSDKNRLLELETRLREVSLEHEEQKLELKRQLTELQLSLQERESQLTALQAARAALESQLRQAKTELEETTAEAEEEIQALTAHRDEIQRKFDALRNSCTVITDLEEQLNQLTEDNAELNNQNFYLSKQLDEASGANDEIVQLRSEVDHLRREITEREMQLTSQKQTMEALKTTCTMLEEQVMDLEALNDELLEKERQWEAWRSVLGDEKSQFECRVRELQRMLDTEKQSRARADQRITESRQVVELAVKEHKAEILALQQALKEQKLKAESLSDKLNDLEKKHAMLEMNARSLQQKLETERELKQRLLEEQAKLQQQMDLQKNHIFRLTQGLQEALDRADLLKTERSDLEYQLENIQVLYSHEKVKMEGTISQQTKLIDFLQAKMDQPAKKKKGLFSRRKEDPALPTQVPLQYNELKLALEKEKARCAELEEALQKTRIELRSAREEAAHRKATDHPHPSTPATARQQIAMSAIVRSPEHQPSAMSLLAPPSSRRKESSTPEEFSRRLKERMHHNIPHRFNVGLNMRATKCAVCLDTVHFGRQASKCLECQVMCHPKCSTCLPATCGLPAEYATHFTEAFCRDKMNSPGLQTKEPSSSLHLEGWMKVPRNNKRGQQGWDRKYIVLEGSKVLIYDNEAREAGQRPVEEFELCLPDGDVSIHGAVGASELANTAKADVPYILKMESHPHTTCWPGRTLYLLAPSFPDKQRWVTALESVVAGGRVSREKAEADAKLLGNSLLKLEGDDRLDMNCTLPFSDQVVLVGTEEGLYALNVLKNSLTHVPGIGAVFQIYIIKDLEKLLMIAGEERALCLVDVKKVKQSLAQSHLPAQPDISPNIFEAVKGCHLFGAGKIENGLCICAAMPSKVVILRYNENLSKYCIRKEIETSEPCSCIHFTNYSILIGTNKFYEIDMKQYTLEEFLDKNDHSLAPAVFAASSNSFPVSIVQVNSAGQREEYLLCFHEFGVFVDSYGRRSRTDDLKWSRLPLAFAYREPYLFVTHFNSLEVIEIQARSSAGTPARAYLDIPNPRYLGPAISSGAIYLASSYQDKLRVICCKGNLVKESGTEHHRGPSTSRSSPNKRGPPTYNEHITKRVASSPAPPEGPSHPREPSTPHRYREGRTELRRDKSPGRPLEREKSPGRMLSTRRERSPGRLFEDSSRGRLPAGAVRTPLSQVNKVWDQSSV

[14] = biological target: Macrophage colony-stimulating factor 1 receptor (Homo sapiens) (UniProt P07333); conditions: Compound concentration 1000.0 nM
[15] = biological target: Casein kinase II subunit alpha (Homo sapiens) (UniProt P68400); conditions: Compound concentration 1000.0 nM
Sequence of Casein kinase II subunit alpha (Homo sapiens) (P68400 whole entry, looked up): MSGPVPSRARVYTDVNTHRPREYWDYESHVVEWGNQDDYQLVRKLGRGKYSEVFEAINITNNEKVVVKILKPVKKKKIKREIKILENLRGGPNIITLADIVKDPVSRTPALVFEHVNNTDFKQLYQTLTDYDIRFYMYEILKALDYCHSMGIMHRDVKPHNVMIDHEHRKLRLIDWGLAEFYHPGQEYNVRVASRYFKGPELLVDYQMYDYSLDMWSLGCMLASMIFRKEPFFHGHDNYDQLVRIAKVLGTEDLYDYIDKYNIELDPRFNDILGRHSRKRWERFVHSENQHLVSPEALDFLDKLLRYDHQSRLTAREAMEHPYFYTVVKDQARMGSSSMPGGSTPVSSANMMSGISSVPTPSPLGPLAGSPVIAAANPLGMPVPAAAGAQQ

[16] = biological target: Serine/threonine-protein kinase DCLK3 (Homo sapiens) (UniProt Q9C098); conditions: Compound concentration 1000.0 nM
[17] = biological target: Dual specificity tyrosine-phosphorylation-regulated kinase 2 (Homo sapiens) (UniProt Q92630); conditions: Compound concentration 1000.0 nM
[18] = biological target: Vascular endothelial growth factor receptor 1 (Homo sapiens) (UniProt P17948); conditions: Compound concentration 1000.0 nM
[19] = biological target: Rhodopsin kinase GRK1 (Homo sapiens) (UniProt Q15835); conditions: Compound concentration 1000.0 nM
[20] = biological target: Interleukin-1 receptor-associated kinase 1 (Homo sapiens) (UniProt P51617); conditions: Compound concentration 1000.0 nM
[21] = system: Mast/stem cell growth factor receptor Kit (Homo sapiens), P10721 [V559D]; conditions: Compound concentration 1000.0 nM
[22] = system: Hepatocyte growth factor receptor (Homo sapiens), P08581 [Y1235D]; conditions: Compound concentration 1000.0 nM
[23] = biological target: Mitogen-activated protein kinase kinase kinase 11 (Homo sapiens) (UniProt Q16584); conditions: Compound concentration 1000.0 nM
[24] = biological target: Muscle, skeletal receptor tyrosine-protein kinase (Homo sapiens) (UniProt O15146); conditions: Compound concentration 1000.0 nM
[25] = biological target: Serine/threonine-protein kinase 38-like (Homo sapiens) (UniProt Q9Y2H1); conditions: Compound concentration 1000.0 nM
Sequence of Serine/threonine-protein kinase 38-like (Homo sapiens) (Q9Y2H1 2-464 limits assumed): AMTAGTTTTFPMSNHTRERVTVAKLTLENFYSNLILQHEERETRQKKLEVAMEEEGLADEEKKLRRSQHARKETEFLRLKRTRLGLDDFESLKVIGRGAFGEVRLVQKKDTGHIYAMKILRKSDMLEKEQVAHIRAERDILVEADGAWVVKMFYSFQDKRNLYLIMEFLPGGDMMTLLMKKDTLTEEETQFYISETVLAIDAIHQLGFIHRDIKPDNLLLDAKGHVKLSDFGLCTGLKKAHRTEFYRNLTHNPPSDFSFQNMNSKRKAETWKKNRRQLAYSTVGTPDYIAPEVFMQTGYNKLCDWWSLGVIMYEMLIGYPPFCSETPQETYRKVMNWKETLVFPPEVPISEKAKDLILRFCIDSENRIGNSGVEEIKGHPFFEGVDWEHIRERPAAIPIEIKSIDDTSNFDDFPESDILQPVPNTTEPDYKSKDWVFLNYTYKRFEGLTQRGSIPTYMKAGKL

[26] = biological target: Serine/threonine-protein kinase Nek1 (Homo sapiens) (UniProt Q96PY6); conditions: Compound concentration 1000.0 nM
[27] = biological target: Cyclin-dependent kinase 15 (Homo sapiens) (UniProt Q96Q40); conditions: Compound concentration 1000.0 nM
[28] = biological target: Cyclin-dependent kinase 14 (Homo sapiens) (UniProt O94921); conditions: Compound concentration 1000.0 nM
[29] = biological target: Phosphatidylinositol 3-kinase C2 domain-containing subunit gamma (Homo sapiens) (UniProt O75747); conditions: Compound concentration 1000.0 nM
[30] = system: Phosphatidylinositol 4,5-bisphosphate 3-kinase catalytic subunit alpha isoform (Homo sapiens), P42336 [E542K]; conditions: Compound concentration 1000.0 nM
[31] = biological target: Serine/threonine-protein kinase PLK2 (Homo sapiens) (UniProt Q9NYY3); conditions: Compound concentration 1000.0 nM
[32] = biological target: Serine/threonine-protein kinase PLK4 (Homo sapiens) (UniProt O00444); conditions: Compound concentration 1000.0 nM
[33] = biological target: Protein kinase C eta type (Homo sapiens) (UniProt P24723); conditions: Compound concentration 1000.0 nM
[34] = system: Proto-oncogene tyrosine-protein kinase receptor Ret (Homo sapiens), P07949 [M918T]; conditions: Compound concentration 1000.0 nM
[35] = biological target: Serine/threonine-protein kinase SIK1 (Homo sapiens) (UniProt P57059); conditions: Compound concentration 1000.0 nM
[36] = biological target: Tyrosine-protein kinase receptor Tie-1 (Homo sapiens) (UniProt P35590); conditions: Compound concentration 1000.0 nM
[37] = biological target: Tyrosine-protein kinase ZAP-70 (Homo sapiens) (UniProt P43403); conditions: Compound concentration 1000.0 nM
Sequence of Tyrosine-protein kinase ZAP-70 (Homo sapiens) (P43403 whole entry): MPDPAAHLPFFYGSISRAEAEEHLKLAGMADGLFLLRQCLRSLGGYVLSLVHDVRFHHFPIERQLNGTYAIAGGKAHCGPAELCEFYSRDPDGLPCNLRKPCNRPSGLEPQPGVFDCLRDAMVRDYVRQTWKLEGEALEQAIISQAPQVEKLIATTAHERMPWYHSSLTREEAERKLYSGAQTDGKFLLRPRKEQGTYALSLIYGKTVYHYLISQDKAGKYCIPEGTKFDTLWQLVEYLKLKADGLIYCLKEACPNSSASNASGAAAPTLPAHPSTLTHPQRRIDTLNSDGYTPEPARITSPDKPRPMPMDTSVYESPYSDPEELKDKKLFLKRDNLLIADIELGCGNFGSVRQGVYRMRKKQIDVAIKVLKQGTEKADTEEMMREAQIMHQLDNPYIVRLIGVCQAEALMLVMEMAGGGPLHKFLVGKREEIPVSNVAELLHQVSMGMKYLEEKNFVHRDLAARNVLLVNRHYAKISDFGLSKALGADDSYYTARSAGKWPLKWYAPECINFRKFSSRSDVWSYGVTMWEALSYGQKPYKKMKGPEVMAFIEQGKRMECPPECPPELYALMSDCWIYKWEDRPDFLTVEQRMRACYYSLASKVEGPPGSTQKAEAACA

[38] = biological target: 5-hydroxytryptamine receptor 5A (Homo sapiens) (UniProt P47898); conditions: Compound concentration 10.0 uM
[39] = biological target: Beta-2 adrenergic receptor (Homo sapiens) (UniProt P07550); conditions: Compound concentration 10.0 uM

Q: What does the source list for `C[C@H](c1ccc(F)cc1)N(Cc1cccc(C(=O)O)c1)C(=O)c1cnc2ccccc2c1` [PF-05105679]?
A: inhibition [1]: 21%; residual activity [2]: 89%; residual activity [3]: 100%; residual activity [4]: 100%; residual activity [5]: 84%; residual activity [6]: 95%; residual activity [7]: 100%; residual activity [8]: 100%; residual activity [9]: 98%; residual activity [10]: 100%; residual activity [11]: 100%; residual activity [12]: 64%; residual activity [13]: 100%; residual activity [14]: 65%; residual activity [15]: 100%; residual activity [16]: 100%; residual activity [17]: 85%; residual activity [18]: 100%; residual activity [19]: 100%; residual activity [20]: 89%; residual activity [21]: 92%; residual activity [22]: 100%; residual activity [23]: 100%; residual activity [24]: 76%; residual activity [25]: 100%; residual activity [26]: 100%; residual activity [27]: 100%; residual activity [28]: 100%; residual activity [29]: 100%; residual activity [30]: 49%; residual activity [31]: 100%; residual activity [32]: 100%; residual activity [33]: 75%; residual activity [34]: 86%; residual activity [35]: 90%; residual activity [36]: 93%; residual activity [37]: 96%; inhibition [38]: -1.89%; inhibition [39]: 23.7%
